From the NIST ThermoML archive (doi:10.1007/s10765-006-0100-z)
Numbers after ± are expanded uncertainties.

What was measured:
[1] = xn = mol fraction of the nth substance listed; settings: 101 kPa, Liquid; for mass density: Vibrating tube method
[2] = 101 kPa, Liquid; for mass density: Vibrating tube method

CC(C)(C)Cl [2-chloro-2-methylpropane] + C1CCOCC1
[1]
Settings | kinematic viscosity [m2/s] | mass density [kg/m3]
298.15 K, x2 = 0 | 5.68e-07 ± 8.2e-09 | 836.45 ± 2
298.15 K, x2 = 0.0324 | – | 838.08 ± 2
298.15 K, x2 = 0.0614 | 5.84e-07 ± 8.4e-09 | –
298.15 K, x2 = 0.1075 | 5.96e-07 ± 8.5e-09 | –
298.15 K, x2 = 0.1086 | – | 842.07 ± 2
298.15 K, x2 = 0.2097 | – | 847.11 ± 2
298.15 K, x2 = 0.2173 | 6.27e-07 ± 8.9e-09 | –
298.15 K, x2 = 0.2891 | – | 851.05 ± 2
298.15 K, x2 = 0.3205 | 6.57e-07 ± 9.3e-09 | –
298.15 K, x2 = 0.42 | 6.88e-07 ± 9.6e-09 | –
298.15 K, x2 = 0.4276 | – | 857.41 ± 2
298.15 K, x2 = 0.496 | – | 860.32 ± 2
298.15 K, x2 = 0.5176 | 7.2e-07 ± 1e-08 | –
298.15 K, x2 = 0.6107 | – | 864.98 ± 2
298.15 K, x2 = 0.6155 | 7.54e-07 ± 1e-08 | –
298.15 K, x2 = 0.6483 | – | 866.46 ± 2
298.15 K, x2 = 0.7156 | 7.91e-07 ± 1.1e-08 | –
298.15 K, x2 = 0.8093 | – | 872.39 ± 2
298.15 K, x2 = 0.8277 | 8.35e-07 ± 1.1e-08 | –
298.15 K, x2 = 0.8606 | – | 874.22 ± 2
298.15 K, x2 = 0.9097 | 8.7e-07 ± 1.2e-08 | –
298.15 K, x2 = 0.954 | – | 877.25 ± 2
298.15 K, x2 = 0.9547 | 8.89e-07 ± 1.2e-08 | –
313.15 K, x2 = 0 | 4.77e-07 ± 7.1e-09 | 818.31 ± 2
313.15 K, x2 = 0.0451 | 4.87e-07 ± 7.2e-09 | –
313.15 K, x2 = 0.0584 | – | 821.7 ± 2
313.15 K, x2 = 0.0875 | – | 823.35 ± 2
313.15 K, x2 = 0.0887 | 4.97e-07 ± 7.4e-09 | –
313.15 K, x2 = 0.1943 | – | 829.15 ± 2
313.15 K, x2 = 0.1978 | 5.21e-07 ± 7.6e-09 | –
313.15 K, x2 = 0.3028 | – | 834.83 ± 2
313.15 K, x2 = 0.3053 | 5.47e-07 ± 7.9e-09 | –
313.15 K, x2 = 0.3972 | 5.7e-07 ± 8.2e-09 | –
313.15 K, x2 = 0.4249 | – | 840.83 ± 2
313.15 K, x2 = 0.4929 | – | 843.99 ± 2
313.15 K, x2 = 0.5024 | 5.98e-07 ± 8.6e-09 | –
313.15 K, x2 = 0.6093 | – | 849.16 ± 2
313.15 K, x2 = 0.6359 | 6.36e-07 ± 9e-09 | –
313.15 K, x2 = 0.7052 | – | 853.15 ± 2
313.15 K, x2 = 0.7056 | 6.57e-07 ± 9.3e-09 | –
313.15 K, x2 = 0.796 | 6.86e-07 ± 9.6e-09 | –
313.15 K, x2 = 0.7988 | – | 856.89 ± 2
313.15 K, x2 = 0.9063 | 7.23e-07 ± 1e-08 | –
313.15 K, x2 = 0.9097 | – | 860.95 ± 2
313.15 K, x2 = 0.9526 | 7.4e-07 ± 1e-08 | –
313.15 K, x2 = 0.9614 | – | 862.64 ± 2

CCC(C)Cl (stereo not given) [2-chlorobutane]
[2]
Settings | kinematic viscosity [m2/s] | mass density [kg/m3]
298.15 K | 4.54e-07 ± 6.8e-09 | 867.37 ± 2
313.15 K | 3.96e-07 ± 6.2e-09 | 850.13 ± 2

CCC(C)Cl (stereo not given) [2-chlorobutane] + C1CCOCC1
[1]
Settings | kinematic viscosity, 298.15 K [m2/s] | kinematic viscosity, 313.15 K [m2/s] | mass density, 298.15 K [kg/m3] | mass density, 313.15 K [kg/m3]
x2 = 0 | 4.54e-07 ± 6.8e-09 | 3.96e-07 ± 6.2e-09 | 867.37 ± 2 | 850.13 ± 2
x2 = 0.0525 | – | – | 868.05 ± 2 | –
x2 = 0.0605 | 4.66e-07 ± 7e-09 | 4.09e-07 ± 6.3e-09 | – | 851.11 ± 2
x2 = 0.1035 | – | – | 869.06 ± 2 | –
x2 = 0.1166 | 4.8e-07 ± 7.2e-09 | 4.22e-07 ± 6.5e-09 | – | 852.02 ± 2
x2 = 0.1947 | – | – | 870.26 ± 2 | –
x2 = 0.2131 | 5.08e-07 ± 7.5e-09 | 4.45e-07 ± 6.7e-09 | – | 853.59 ± 2
x2 = 0.3042 | – | – | 871.8 ± 2 | –
x2 = 0.3174 | 5.42e-07 ± 7.9e-09 | 4.72e-07 ± 7.1e-09 | – | 855.4 ± 2
x2 = 0.4088 | 5.75e-07 ± 8.3e-09 | 4.97e-07 ± 7.4e-09 | – | 857 ± 2
x2 = 0.4091 | – | – | 872.95 ± 2 | –
x2 = 0.4994 | 6.11e-07 ± 8.7e-09 | 5.25e-07 ± 7.7e-09 | – | 858.35 ± 2
x2 = 0.5025 | – | – | 874.28 ± 2 | –
x2 = 0.5947 | – | – | 875.42 ± 2 | –
x2 = 0.6122 | 6.62e-07 ± 9.3e-09 | 5.66e-07 ± 8.2e-09 | – | 859.58 ± 2
x2 = 0.7108 | 7.14e-07 ± 9.9e-09 | 6.06e-07 ± 8.6e-09 | – | 861.03 ± 2
x2 = 0.7116 | – | – | 876.72 ± 2 | –
x2 = 0.8059 | 7.69e-07 ± 1.1e-08 | 6.49e-07 ± 9.2e-09 | – | 862.1 ± 2
x2 = 0.809 | – | – | 877.46 ± 2 | –
x2 = 0.8917 | – | – | 878.36 ± 2 | –
x2 = 0.9023 | 8.34e-07 ± 1.1e-08 | 6.97e-07 ± 9.7e-09 | – | 862.9 ± 2
x2 = 0.9549 | 8.73e-07 ± 1.2e-08 | 7.28e-07 ± 1e-08 | – | 863.45 ± 2
x2 = 0.9599 | – | – | 878.55 ± 2 | –

C1CCOCC1 [tetrahydropyran]
[2]
Settings | kinematic viscosity [m2/s] | mass density [kg/m3]
298.15 K | 9.1e-07 ± 1.2e-08 | 878.81 ± 2
313.15 K | 7.57e-07 ± 1e-08 | 863.67 ± 2

C1CCOCC1 [tetrahydropyran] + CC(C)(C)Cl
[1], x1 = 1
Settings | kinematic viscosity [m2/s] | mass density [kg/m3]
298.15 K | 9.1e-07 ± 1.2e-08 | 878.81 ± 2
313.15 K | 7.57e-07 ± 1e-08 | 863.67 ± 2

C1CCOCC1 [tetrahydropyran] + CC(C)CCl
[1], x1 = 1
Settings | kinematic viscosity [m2/s] | mass density [kg/m3]
298.15 K | 9.1e-07 ± 1.2e-08 | 878.81 ± 2
313.15 K | 7.57e-07 ± 1e-08 | 863.67 ± 2

C1CCOCC1 [tetrahydropyran] + CCC(C)Cl
[1], x1 = 1
Settings | kinematic viscosity [m2/s] | mass density [kg/m3]
298.15 K | 9.1e-07 ± 1.2e-08 | 878.81 ± 2
313.15 K | 7.57e-07 ± 1e-08 | 863.67 ± 2

C1CCOCC1 [tetrahydropyran] + CCCCCl
[1], x1 = 1
Settings | kinematic viscosity [m2/s] | mass density [kg/m3]
298.15 K | 9.1e-07 ± 1.2e-08 | 878.81 ± 2
313.15 K | 7.57e-07 ± 1e-08 | 863.67 ± 2
